Data taken from patent US20220062281A1, “INHIBITORS TO TARGET HIV-1 NEF-CD80/CD86 IN[…] THERAPEUTIC INTERVENTION” (priority 2018, published 2022).

Experiments:
[1] = target: Nef interaction with CD80 (Human immunodeficiency virus type 1 group M subtype B, UniProt P04601); assay: ELISA primary screen: Nef binding to CD80 cytosolic peptide; set-up: species or system HIV-1; details: CD80 pIC50 value, inhibition of Nef-CD80 binding
Method: (§1) Standard ELISA assay was used to validate the compounds as a primary screen. The basic steps of the assay are outlined in FIG. 1. The cytosolic peptides CD80, CD86 and CD74 are coated on a microplate, while CD80 and CD86 has higher binding capacity with the Nef protein, CD74 is non-specific peptide and is a peptide negative control for Nef binding. The coated plates are incubated overnight at 4° C. The plates were washed 5 times with PBS (0.02% Tween-20) before every step. After washing, the wells were blocked with 5% blotto and incubated at RT with shaking (650 rpm). The plates were washed 5 times with PBS (0.02%-tween20) after every step. Primary antibody […] anti-Nef raised in rabbit dissolved in 2.5% blotto (1:1000) were added and incubated on shaker for 1 hour at RT. Plate was washed and 100 μL anti rabbit raised in donkey dissolved in 2.5% blotto (1:11000) was added and incubated at RT for 45 min. Plate was washed with PBS and TMB substrate solution was added and incubated in dark for 5-10 min. The reaction was stopped with 1N H2SO4 and the absorbance was measured at 450 nm. Positive control (Nef) and Negative control (No peptide with Nef) were analysed for highest binding of Nef with peptide. The absorbance of the plates was measured at 450 nm.
(§2) A throughput screen was performed to pull out the actives. Standard quality control metrics like Z′ were used to qualify plates and Z′ scores were used to identify actives. The IC50 value of the compounds were further determined to evaluate the efficacy of the test compounds.
(§3) The IC50 values of the compounds have been illustrated in Table 1. […] Actives predominantly belong to compounds from Formula I, II and III with IC50s in nano or subnanomolar ranges were selected. Selected compounds were then screened in the cell-based assays systems.

[2] = tested on: Nef mediated T cell inactivation; assay: T cell activation assay (IL-2 release, B-cell line co-cultured with T cell line); format: cell-based; details: 100 μM, B-cell line pre-exposed 1 hr, Nef via protein delivery agent, IL-2 by ELISA after 3 hrs
Description: The appropriate cell system was designed to mimic the biology of the said interactions. FIG. 4(A) represents the principle behind the activation of naïve T cells by the antigen presenting cells (APC), including dendritic cells, B cells, monocytes, macrophages. The activation is based on CD80/86 co-stimulation along with CD3 activation by major histocompatibility complex (MHC) as evidenced by an increase in IL-2 release from the activated T cells.
Representative compounds from the Formula I, II and III were tested in the functional T cell assay and the results are as presented in FIG. 5. B-cell line was pre-exposed to 100 μM of the 4 compounds for 1 hr. The cells were washed and then Nef was introduced via protein delivery agent. The cells were washed again and co-cultured with T cell line. The IL-2 release (as an indicator of activation) was measured by ELISA after 3 hrs. Addition of Nef reduced the T cell activation by more than 50%.

[3] = target: Nef interaction with CD86 (Human immunodeficiency virus type 1 group M subtype B, UniProt P04601); assay: ELISA primary screen: Nef binding to CD86 cytosolic peptide; set-up: species or system HIV-1
Method: as §1, §2, §3

[4] = tested on: Nef mediated internalization of surface CD80/86 in B/monocyte cells; assay: Cell-based phenotypic screen for downregulation of surface CD80/86 (flow cytometry); details: 100 μM, pre-exposed 2 hrs, then infected with non-replicative retrovirus containing NEF; flow cytometry after 48-72 hrs
Description: CD80 and CD86 are two major co-stimulatory cell surface proteins that are present on antigen presenting cells (APCs) and provide a co-stimulatory signal necessary for activation and survival of the naïve T cells. Both these proteins get down regulated during HIV infection via a Nef mediated pathway. It has been speculated that Nef ability to reduce CD80 and CD86 surface expression in infected cells can prevent the activation of naive T cells, necessary for an efficient recognition and elimination of the target cells. FIG. 2 illustrates that in the presence of the compounds of Formula I, Formula II or Formula III, the binding of Nef with CD80 and CD86 is inhibited thus increasing their expression. The increased expression would activate naïve T cells and aid in eliminating the infection.
Briefly monocyte/B cell lines were either delivered with Nef protein or exposed to replication deficient retrovirus and the levels of surface CD80/86 was evaluated by flow cytometry with/without compound treatment. The compounds were qualified based on the ability to reverse the down regulation of CD80/86 caused by the Nef protein. Similar quality checks were used in the secondary screen as in primary screen. Briefly, B/monocyte cells were preexposed to 100 μM of the 4 compounds for 2 hrs and then infected with non-replicative retrovirus containing NEF. The internalization of surface receptors were measured by flow cytometry after optimal infection (48-72 hrs).

SMILES	IC50 [1] [nM]	reversal of Nef mediated inactivation of T cells (IL-2 release) [2]	IC50 [3] [nM]	reversal of Nef mediated internalization of CD80/86 [4]
Cc1cc(C)n(-c2ncc(-c3ccc([N+](=O)[O-])cc3)cn2)n1 [Compound I1a, 2-(3,5-Dimethyl-1H-pyrazol-1-yl)-5-(4-nitrophenyl)pyrimidine]	0.00234	–	–	–
CN(C)c1ncc(-c2ccccc2)cn1 [Compound I3a, N,N-Dimethyl-5-phenylpyrimidin-2-amine]	0.011	–	–	–
FC(F)(F)c1ccc(-c2cnc(N3CCOCC3)nc2)cc1 [Compound I3b, 4-[5-(4-(Trifluoromethyl)phenyl)pyrimidin-2-yl]morpholine]	0.129	reversed the Nef mediated inactivation	1.62	reversal of Nef mediated internalization of CD80/86
O=C(Oc1ccccc1)n1c(=S)oc2ccccc21 [II1, Phenyl 2-thioxobenzo[d]oxazole-3(2H)-carboxylate]	0.0912	–	–	–
Cc1ccc(OC(=O)Nc2ccc(Cc3ccc(NC(=O)Oc4ccc(C)cc4)cc3)cc2)cc1 [II2d, Di-p-tolyl [methylenebis(4,1-phenylene)]dicarbamate]	10.5	–	513	–
O=C(Nc1ccccc1F)Oc1ccc2ccccc2c1 [II3, Naphthalen-2-yl (2-fluorophenyl)carbamate]	–	reversed the Nef mediated inactivation	0.0126	reversal of Nef mediated internalization of CD80/86
O=C(Nc1ccc(Cl)c(Cl)c1)Nc1cc([N+](=O)[O-])ccc1OC(=O)Nc1ccc(Cl)c(Cl)c1 [II4, 2-[3-(3,4-dichlorophenyl)ureido]-4-nitrophenyl (3,4-dichlorophenyl)carbamate]	0.0275	–	0.275	–
O=C(Oc1cccc(-c2nnco2)c1)N(c1ccccc1)c1ccccc1 [II5, 3-[(1,3,4-oxadiazol-2-yl)phenyl]diphenylcarbamate]	0.00275	–	–	–
Cc1ccc(S(=O)(=O)NNC(=O)c2ccccc2OC(=O)Nc2ccccc2)cc1 [II7, 2-[(2-Tosylhydrazine-1-carbonyl)phenyl]phenylcarbamate]	0.0871	–	–	–
CCCOC(=O)c1ccc(NC(=O)COc2cccc(C)c2)cc1 [III1e, Propyl 4-[2-(m-tolyloxy)acetamido]benzoate]	2.34	–	–	–
Cc1cc(C)cc(OCC(=O)Nc2ccc(C(=O)O)c(O)c2)c1 [III2a, 4-[2-(3,5-dimethylphenoxy)acetamido]-2-hydroxybenzoic acid]	0.00447	reversed the Nef mediated inactivation	–	reversal of Nef mediated internalization of CD80/86
CC(Oc1ccccc1)C(=O)Nc1ccc(C(=O)O)cc1 (stereo not shown) [III2b, 4-(2-Phenoxypropanamido)benzoic acid]	1.12	–	–	–
CCOC(=O)c1ccc(NC(=O)C(C)(C)Oc2ccc(Cl)cc2)cc1 [III2c, Ethyl 4-[2-(4-chlorophenoxy)-2-methylpropanamido]benzoate]	1.51	–	–	–
